One may read the IC50 as the concentration needed to halve the response being measured. A high value points to weaker potency in that assay. In general, Km refers to the concentration of substrate that gives half-maximal velocity.

The values that follow come from patent US7482379B2, “Propenoyl hydrazides” (priority 2004, dated 2009).

In experiment [1] the target is T1, Cathepsin B (Homo sapiens, UniProt P07858). The note with it: irreversible inhibition; background art; cited from earlier work.
In the next experiment the target is cathepsin L (Homo sapiens, UniProt P07711). The note with it: irreversible inhibition; background art; cited from earlier work.
For another experiment, the system named is clan CD proteases. To be noted: background art; cited from earlier work.
Experiment [2] has as its target S. mansoni legumain (Schistosoma mansoni, UniProt P09841, N192C). The experiment can be described thus: S. mansoni legumain (SmAE) inhibition assay. The format is biochemical.
A further experiment concerns the target Gingipain K (Porphyromonas gingivalis, UniProt Q51817). In words: biochemical. The format is biochemical. To be noted: for kinact/KI: pH 8, read-out: kobs/[I] Gingipain K; for k2 Gingipain K: Table 3, Suc-Ala-Phe-Lys-AMC substrate, pH 8.0.
The target in the next experiment is T2, Papain (Carica papaya, UniProt P00784).
T2 sequence (P00784 134-345): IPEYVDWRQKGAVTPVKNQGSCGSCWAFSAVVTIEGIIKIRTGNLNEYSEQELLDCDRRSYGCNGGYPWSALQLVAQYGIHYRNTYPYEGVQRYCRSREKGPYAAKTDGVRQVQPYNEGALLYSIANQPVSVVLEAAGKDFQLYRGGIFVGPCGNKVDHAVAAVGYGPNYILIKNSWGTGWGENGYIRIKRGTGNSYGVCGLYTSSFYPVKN
The experiment can be described thus: Papain incubation inhibition assay. Type of experiment: biochemical. The note with it: for kinact/KI: pH 7.5, read-out: kobs/[I] Papain. On the procedure:
Pseudo first-order inactivation rate constants were obtained from plots of ln vt/vo versus time.
The incubation method was also used for papain. The inhibition incubation buffer for papain was 50 mM Hepes buffer at pH 7.5, containing 2.5 mM DTT and 2.5 mM EDTA. The assay used the substrate Z-Phe-Arg-pNA (53.7 μM) in the same buffer. The approximate concentration of papain added to the incubation buffer was 0.29 mg/mL. The release of p-nitroanilide was monitored at 405 nm with a Molecular Devices Thermomax microplate reader.

Experiment [3] addresses T1, Cathepsin B. The experiment can be described thus: Cathepsin B incubation inhibition assay. Type of experiment: biochemical. The note with it: for kobs/[I] Cathepsin B: Table 5, gingipain and clostripain specific inhibitors. On the procedure: Papain and Cathepsin B. The incubation method was used to measure the irreversible inhibition of papain and cathepsin B. […] Pseudo first-order inactivation rate constants were obtained from plots of ln vt/vo versus time.

The test system of experiment [4] is S. mansoni legumain. The note with it: background art, cited from earlier work.
For a further experiment, the target named is T3, human legumain (Homo sapiens, UniProt Q99538).
T3 sequence (Q99538 18-323): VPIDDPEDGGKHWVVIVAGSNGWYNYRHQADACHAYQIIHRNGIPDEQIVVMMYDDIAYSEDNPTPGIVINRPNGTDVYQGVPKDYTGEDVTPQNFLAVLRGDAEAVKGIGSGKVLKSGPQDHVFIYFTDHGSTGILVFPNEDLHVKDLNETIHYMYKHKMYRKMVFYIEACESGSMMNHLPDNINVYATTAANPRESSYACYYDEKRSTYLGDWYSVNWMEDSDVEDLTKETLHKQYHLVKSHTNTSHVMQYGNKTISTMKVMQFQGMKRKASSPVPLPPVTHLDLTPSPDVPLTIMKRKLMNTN
The note with it: synthetic substrate; background art; cited from earlier work.

The subject of another experiment is Gingipain R. In words: Gingipain R inhibition. Type of experiment: biochemical. The note with it: Table 3.
A further experiment deals with Clostripain (Hathewaya histolytica, UniProt P09870). To be noted: Table 3; Z-Phe-Arg-AMC substrate; pH 7.6.
The test system of a further experiment is Trypsin. To be noted: Table 5, gingipain and clostripain specific inhibitors.

Peptide text beside a SMILES is read from it. * marks the point of attachment. AMC = Cc1cc(=O)oc2cc(N*)ccc12; Cbz = O=C(OCc1ccccc1)*

Sequence of S. mansoni legumain (Schistosoma mansoni, UniProt P09841, N192C) (P09841 32-291 N192C): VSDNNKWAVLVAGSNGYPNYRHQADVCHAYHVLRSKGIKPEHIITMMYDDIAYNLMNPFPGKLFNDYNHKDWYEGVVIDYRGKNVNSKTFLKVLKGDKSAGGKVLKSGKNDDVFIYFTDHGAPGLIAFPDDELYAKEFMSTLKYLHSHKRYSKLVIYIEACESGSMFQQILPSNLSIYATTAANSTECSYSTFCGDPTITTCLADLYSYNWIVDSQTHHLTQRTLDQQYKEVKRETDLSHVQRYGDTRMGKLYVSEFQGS
Sequence of Gingipain K (Q51817 229-1732 limits assumed): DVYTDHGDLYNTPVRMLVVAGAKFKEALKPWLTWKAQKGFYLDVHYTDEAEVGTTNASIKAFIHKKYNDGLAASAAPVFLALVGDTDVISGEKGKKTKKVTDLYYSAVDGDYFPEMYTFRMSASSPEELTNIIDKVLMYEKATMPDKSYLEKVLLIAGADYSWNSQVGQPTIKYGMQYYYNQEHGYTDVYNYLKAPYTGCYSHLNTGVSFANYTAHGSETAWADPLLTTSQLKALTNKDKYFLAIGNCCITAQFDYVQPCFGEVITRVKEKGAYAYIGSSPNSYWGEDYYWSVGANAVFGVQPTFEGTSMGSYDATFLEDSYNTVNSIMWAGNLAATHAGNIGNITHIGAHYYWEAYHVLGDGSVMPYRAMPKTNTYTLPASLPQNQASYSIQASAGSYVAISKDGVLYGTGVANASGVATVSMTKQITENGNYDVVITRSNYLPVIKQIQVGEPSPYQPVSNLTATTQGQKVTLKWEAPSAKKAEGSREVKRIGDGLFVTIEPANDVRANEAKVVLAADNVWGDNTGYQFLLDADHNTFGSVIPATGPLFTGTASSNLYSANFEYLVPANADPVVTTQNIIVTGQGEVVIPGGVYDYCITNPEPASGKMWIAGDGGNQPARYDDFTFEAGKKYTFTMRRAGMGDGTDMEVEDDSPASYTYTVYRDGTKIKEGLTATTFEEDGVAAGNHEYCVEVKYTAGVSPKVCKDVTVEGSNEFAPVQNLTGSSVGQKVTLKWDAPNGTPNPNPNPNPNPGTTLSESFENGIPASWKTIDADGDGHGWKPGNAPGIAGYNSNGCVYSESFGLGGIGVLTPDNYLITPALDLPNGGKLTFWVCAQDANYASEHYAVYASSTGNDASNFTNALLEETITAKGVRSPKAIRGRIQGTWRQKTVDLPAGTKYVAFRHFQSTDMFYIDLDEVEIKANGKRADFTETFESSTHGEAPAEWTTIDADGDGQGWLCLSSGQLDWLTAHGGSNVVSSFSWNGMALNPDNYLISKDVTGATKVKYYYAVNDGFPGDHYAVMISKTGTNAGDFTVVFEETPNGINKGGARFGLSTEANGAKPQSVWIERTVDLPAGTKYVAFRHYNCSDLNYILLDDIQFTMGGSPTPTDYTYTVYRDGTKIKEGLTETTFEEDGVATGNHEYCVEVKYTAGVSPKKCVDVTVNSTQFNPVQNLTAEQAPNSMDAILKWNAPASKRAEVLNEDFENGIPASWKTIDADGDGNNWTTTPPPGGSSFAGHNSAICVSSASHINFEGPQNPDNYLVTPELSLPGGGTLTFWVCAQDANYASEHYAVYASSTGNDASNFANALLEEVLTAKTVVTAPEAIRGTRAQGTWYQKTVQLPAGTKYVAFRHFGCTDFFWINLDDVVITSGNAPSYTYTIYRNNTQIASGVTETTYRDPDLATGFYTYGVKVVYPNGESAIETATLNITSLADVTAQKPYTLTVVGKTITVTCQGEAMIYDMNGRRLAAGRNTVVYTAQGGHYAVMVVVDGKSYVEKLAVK
Sequence of Clostripain (P09870 51-526): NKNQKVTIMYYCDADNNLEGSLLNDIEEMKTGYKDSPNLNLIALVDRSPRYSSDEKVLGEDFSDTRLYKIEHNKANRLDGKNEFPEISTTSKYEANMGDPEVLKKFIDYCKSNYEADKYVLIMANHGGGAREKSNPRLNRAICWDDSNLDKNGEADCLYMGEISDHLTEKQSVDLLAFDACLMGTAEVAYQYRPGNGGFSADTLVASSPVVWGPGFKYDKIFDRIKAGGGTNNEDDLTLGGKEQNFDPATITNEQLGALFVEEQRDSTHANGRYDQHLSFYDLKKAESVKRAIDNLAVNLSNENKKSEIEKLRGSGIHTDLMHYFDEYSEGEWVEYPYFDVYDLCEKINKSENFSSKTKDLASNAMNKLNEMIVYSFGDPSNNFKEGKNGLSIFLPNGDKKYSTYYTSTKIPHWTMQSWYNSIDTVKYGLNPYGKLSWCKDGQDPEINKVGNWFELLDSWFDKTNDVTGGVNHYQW
Sequence of cathepsin L (P07711 114-333, species assumed): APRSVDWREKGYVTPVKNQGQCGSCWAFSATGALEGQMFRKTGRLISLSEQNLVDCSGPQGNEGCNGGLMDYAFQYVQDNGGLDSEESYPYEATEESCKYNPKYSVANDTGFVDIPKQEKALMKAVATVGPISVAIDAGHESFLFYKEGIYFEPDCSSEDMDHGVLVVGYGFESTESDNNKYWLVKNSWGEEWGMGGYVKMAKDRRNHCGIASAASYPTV
Description for Clostripain: Clostripain. […] All data obtained was processed by pseudo-first order kinetics,
Protocol for Trypsin: Trypsin. Trypsin was purchased from Sigma Chemical Co. (St. Louis, Mo.) as a solid which was dissolved in a solution of 1 mM HCl at a concentration of 1 μM, kept at 0° C., and used immediately. […] The enzymatic assay was followed for 10 min with the 2.5 mM stock inhibitor solution and 1 mM stock substrate solution. The data was processed as a competitive reversible inhibitor by a Dixon plot.

For `CC(C)CCNC(=O)[C@H](CC(C)C)NC(=O)/C=C/C(=O)O` (stereo in doubt) [fumarate derivative of E-64c, trans-HOOCCH═CH—CO-Leu-NH(CH2)2CH(CH3)2], the “kapp cathepsin B” value at Cathepsin B [1] is 625 M⁻¹ s⁻¹. Moreover, the “kapp cathepsin L” value on cathepsin L was 2272 M⁻¹ s⁻¹. Further, in the experiment on clan CD proteases, the “inhibition of clan CD proteases” value is on record as “do not inhibit”.

`C[C@H](NC(=O)OCc1ccccc1)C(=O)N[C@@H](C)C(=O)NN(CC(N)=O)C(=O)/C=C/C(=O)N(Cc1ccccc1)Cc1ccccc1` [Cbz-Ala-Ala-AAsn-CH═CH—CON(Bzl)2, N^2—(N-BenzyloxycarbonylaIanylalanyl)-N^1-carbamoylmethyl-N^1-trans-(3-dibenzylcarbamoylpropenoyl)hydrazine] registered a half-inhibitory concentration (IC50) on S. mansoni legumain [2] of 45 nM. The kinact/KI is 5800 M⁻¹ s⁻¹ at S. mansoni legumain [2] (read-out: kobs/[I]), 2 M⁻¹ s⁻¹ at Gingipain K and 1 M⁻¹ s⁻¹ at Papain.

The compound `C[C@H](NC(=O)OCc1ccccc1)C(=O)N[C@@H](C)C(=O)NN(CC(N)=O)C(=O)/C=C/C(=O)NCCc1ccccc1` [Cbz-Ala-Ala-AAsn-CH═CH—CONHCH2CH2Ph, N^2—(N-Benzyloxycarbonylalanylalanyl)-N^1-carbamoylmethyl-N^1-trans-(3-phenethylcarbamoylpropenoyl)hydrazine] had an IC50 on S. mansoni legumain [2] of 600 nM. For the same compound, the “kobs/[I] Papain” value at Papain (Table 6, legumain specific inhibitors, NI = no inhibition after 20 minutes of incubation) was found to be 12 M⁻¹ s⁻¹. Moreover, the kinact/KI on Papain stood at 12 M⁻¹ s⁻¹.

For the compound `CCOC(=O)/C=C/C(=O)N(CC(N)=O)NC(=O)[C@H](C)NC(=O)[C@H](C)NC(=O)OCc1ccccc1` [Cbz-Ala-Ala-AAsn-CH═CH—COOEt, N^2—(N-BenzyloxycarbonylalanylaIanyl)-N^1-carbamoylmethyl-N^1-trans-(3-ethylesterpropenoyl)hydrazine], the kinact/KI worked out at 6 M⁻¹ s⁻¹ on Gingipain K and 1 M⁻¹ s⁻¹ at Cathepsin B [3] (pH 6, read-out: kobs/[I] Cathepsin B).

As for `Cc1cc(=O)oc2cc(NC(=O)[C@H](CC(N)=O)NC(=O)[C@H](C)NC(=O)[C@H](C)NC(=O)OCc3ccccc3)ccc12` [Cbz-Ala-Ala-Asn-AMC] (Cbz-Ala-Ala-Asn-{AMC}), the Michaelis constant (Km) with S. mansoni legumain [4] (synthetic substrate) was 90 µM; on human legumain, 80 µM.

Regarding `C[C@H](NC(=O)[C@H](Cc1ccccc1)NC(=O)OCc1ccccc1)C(=O)C=[N+]=[N-]` [Cbz-Phe-Ala-CHN2], in the experiment on S. mansoni legumain [4], the “inhibition of S. mansoni legumain” value is “not inhibited”.

Take `CC(C)C[C@H](NC(=O)[C@H]1O[C@@H]1C(=O)O)C(=O)NCCCCN=C(N)N` [Example E-64, E-64]: the “inhibition of S. mansoni legumain” value in the experiment with S. mansoni legumain [4] is given as “not inhibited”.

As to `CC(C)CCNC(=O)[C@H](CC(C)C)NC(=O)[C@H]1O[C@@H]1C(=O)O` [Example E-64c, E-64c], the “inhibition of clan CD proteases” value with clan CD proteases is reported as “do not inhibit”.

Regarding `CC(C)CC(NC(=O)CCc1ccccc1)C(=O)NN(CCCCN)C(=O)C=CC(=O)N(Cc1ccccc1)Cc1ccccc1` (centres unmarked) [PhPr-Leu-ALys-CH═CH—CON(CH2Ph)2], the “k2 Gingipain K” value on Gingipain K is 2,130,000 M^−1s^−1. Further, in the experiment on Gingipain R, the “k2 Gingipain R” value came to 65 M⁻¹ s⁻¹. The “k2 Clostripain” value at Clostripain was 20,000 M^−1s^−1.

Turning to `CC(C)CC(NC(=O)CCc1ccccc1)C(=O)NN(CCCCN)C(=O)C=CC(=O)N(C)Cc1ccccc1` (centres unmarked) [PhPr-Leu-ALys-CH═CH—CON(Me)CH2Ph], on Gingipain K, the “k2 Gingipain K” value is 1,360,000 M^−1s^−1. Further, the “k2 Gingipain R” value in the experiment with Gingipain R was determined as 79 M⁻¹ s⁻¹. Further, the “k2 Clostripain” value at Clostripain is reported as 6,000 M^−1s^−1.

Turning to `CC(C)C[C@H](NC(=O)CCc1ccccc1)C(=O)NN(CCCCN)C(=O)C=CC(=O)NCc1ccccc1` [PhPr-Leu-ALys-CH═CH—CONHCH2Ph], the “k2 Gingipain K” value at Gingipain K is 236,000 M^−1s^−1. Moreover, in the experiment with Gingipain R, the “k2 Gingipain R” value worked out at 20 M⁻¹ s⁻¹. Besides, on Clostripain, the “k2 Clostripain” value is reported as 1,050 M^−1s^−1.

Take `CCOC(=O)C=CC(=O)N(CCCCN)NC(=O)[C@H](CC(C)C)NC(=O)CCc1ccccc1` [PhPr-Leu-ALys-CH═CH—COOEt]: the “k2 Gingipain K” value on Gingipain K is 3,280,000 M^−1s^−1. In addition, the “k2 Gingipain R” value with Gingipain R came to 289 M⁻¹ s⁻¹. The “kobs/[I] Cathepsin B” value at Cathepsin B [3] worked out at 9 M⁻¹ s⁻¹. Besides, on Clostripain, the “k2 Clostripain” value is 40,750 M^−1s^−1. Also, the “kobs/[I] Trypsin” value in the experiment with Trypsin turned out to be 17 M⁻¹ s⁻¹.

Consider `CC(C)C[C@H](NC(=O)CCc1ccccc1)C(=O)NN(CCCN)C(=O)C=CC(=O)N(Cc1ccccc1)Cc1ccccc1` [PhPr-Leu-AOrn-CH═CH—CON(CH2Ph)2], for which the “k2 Gingipain K” value at Gingipain K is recorded as 61,600 M^−1s^−1. Also, in the experiment on Gingipain R, the “k2 Gingipain R” value was found to be 541 M⁻¹ s⁻¹. For the same compound, the “k2 Clostripain” value at Clostripain was 541 M⁻¹ s⁻¹.

Take `CCOC(=O)C=CC(=O)N(CCCN)NC(=O)[C@H](CC(C)C)NC(=O)CCc1ccccc1` [PhPr-Leu-AOrn-CH═CH—COOEt]: at Gingipain K, the “k2 Gingipain K” value was 927,000 M^−1s^−1. Moreover, the “k2 Gingipain R” value in the experiment with Gingipain R worked out at 32 M⁻¹ s⁻¹. Besides, the “kobs/[I] Cathepsin B” value at Cathepsin B [3] amounted to 3 M⁻¹ s⁻¹. For the same compound, the “k2 Clostripain” value at Clostripain turned out to be 788 M⁻¹ s⁻¹.
